Earlier results in patent US20250152551A1, “DOCETAXEL COMPOSITIONS AND METHODS” (ZHUHAI BEIHAI BIOTECH CO., LTD., priority 2022, published 2025).

Tests used:
[1] = test system: microtubule depolymerization

Solubility in water: practically insoluble in water
Structure (SMILES): CC(=O)O[C@@]12CO[C@@H]1C[C@H](O)[C@@]1(C)C(=O)[C@H](O)C3=C(C)[C@@H](OC(=O)[C@H](O)[C@@H](NC(=O)OC(C)(C)C)c4ccccc4)C[C@@](O)([C@@H](OC(=O)c4ccccc4)[C@H]21)C3(C)C [docetaxel]
Potency in inhibiting microtubule depolymerization relative to paclitaxel [1]: about twice as potent as paclitaxel
